Where a name gives a salt, the structure may show the parent alone.
How the values were obtained:
SKOV3ip-GFP cells = assay: Short-term omental engraftment assay; assay type: in vivo, mice; settings: 18 h post i.p. injection; 1 mg/kg oral every 12 h; cells pretreated with 10 μM; vs placebo
Procedure: Mice were conditioned to placebo pills for two days prior to drug treatment. […] Consumption was confirmed by visual observation. […] Omenta were harvested from animals 18 h post-injection and placed in ice cold 1X phosphate-buffered saline (PBS) until imaged with an Olympus IX70 inverted fluorescent microscope and Olympus CellSens software. SKOV3ip-GFP cells were subsequently digested from the omentum using 10% NP-40 substitute (Sigma, cat# 74385) in 1X PBS for 30 min at 37 °C. Omenta were gently homogenized using disposable micropestles, centrifuged, and fluorescence intensity was measured using a […] Spectramax M2 plate spectrophotometer (ex:480 nm, em:520 nm).

Cdc42 = tested on: Cdc42; design: method as in earlier work; settings: cell-based assays, ovarian tumor cells; ref 23 (R-ketorolac), 27 (S-ketorolac); cited from earlier work
[1] = mouse, in vivo
Procedure: Foxn1^nu NU /J athymic nude female mice, aged 6–9 weeks, were purchased from The Jackson Laboratory (Bar Harbor, ME, stock number 002019). […] Mice were maintained at a controlled temperature of 22–23 °C, with a 12-h light/12-h dark cycle. Water and standard mouse chow were available ad libitum. […] Their health status was monitored throughout the experiment. […] Mice were euthanized using a CO2 chamber in accordance with the recommendation of the Panel on Euthanasia of the American Veterinary Medical Association. Cervical dislocation was then carried out to confirm death before tumor analysis and tissue collection.

COX-2 = tested on: COX-2; design: method as in PMID 26558612, PMID 10027870; settings: cited from earlier work
RhoA = tested on: RhoA; design: method as in PMID 26071482; settings: cited from earlier work
[2] = design: method as in PMID 8809637; settings: single dose oral administration of R-ketorolac; cited from earlier work
[3] = Enantiomer stability of ketorolac in the oral dosage form (HPLC); assay type: physicochemical; settings: transgenic dough pills stored at 4 °C
Procedure: As an alternative to gavage for oral delivery, drug was administered in pills formed from transgenic dough (BioServ, Flemington, NJ, cat #S3472). […] Briefly, R-Ketorolac was dissolved in 100% ethanol to a concentration of 5 mg/ml. Bromophenol blue was added to solutions at a final concentration of 0.1% as an aid to ensure even distribution of drug into the dough. Placebo pills were made using an equivalent volume of 100% ethanol containing 0.1% bromophenol blue. Dough was then pressed using 100 mg pill forms (Gallipot, St. Paul, MN). Pills were allowed to dry at room temperature overnight then removed from the forms and stored at 4 °C. Ketorolac, as racemic compound or individual enantiomer, was stable for at least 3 months in the pills as determined by high performance liquid chromatography (HPLC) (Additional File 2: Figure S1).
Cell Culture and Reagents
SKOV3ip cells were modified to express GFP-Rac1 by transfection with pcDNA3-EGFP-Rac1-wt (Catalog # 12980, Addgene) as described for SKOV3ip-GFP cells under Methods. Rac1 overexpression quantification and verification was completed by western blot and qPCR. […]
Omental tissue was harvested and stored on ice in PBS for no more than 1 hour before analysis. Omenta were blotted dry on lab tissue and weight was measured using an analytical balance (Denver Instruments Company, A -160). […]

[4] = humans, multiple dosing regimens over 5 days; cited from earlier work

| Stability in pills [3] | SMILES | Omental engraftment (GFP fluorescence, omental localization of SKOV3ip-GFP cells) (SKOV3ip-GFP cells) | IC50 (Cdc42) [nM] | Body weight [1] | IC50 (COX-2) [nM] | Inhibition of RhoA activity (RhoA) | Maximal peak serum concentration [2] [µg/mL] | Accumulation of enantiomers with multiple dosing [4] |
| --- | --- | --- | --- | --- | --- | --- | --- | --- |
|  | O=C(c1ccccc1)c1ccc2n1CC[C@H]2C(=O)O [R-ketorolac] | decreased the omental localization of SKOV3ip-GFP cells | 1070 | No significant difference in body weight | > 100000 | does not inhibit the activity of RhoA | 2.48 |  |
| at least 3 months | O=C(c1ccccc1)c1ccc2n1CCC2C(=O)O (centres unmarked) [R−/S-ketorolac, ketorolac tromethamine salt] |  |  |  |  |  |  | did not result in accumulation of either enantiomer |
